Test results: US8367700B2, “Substituted 4-(1.2,3,4-tetrahydroisoquinolin-2-yl)-4-oxobutyric acid amide as KCNQ2/3 modulators” (Gruenenthal GmbH, priority 2008, dated 2013)

Experiments:
hKCNQ2/3 [1] = target: T1, hKCNQ2/3 (Homo sapiens, UniProt O43525+O43526); test: Fluorescence assay using a voltage-sensitive dye (fluorimetry); assay type: cell-based; design: expressed in transfected cells; host or cells: CHO-K1; conditions: CHO-K1 cells expressing KCNQ2/3; for Emax at 1 µM / Emax at 10 µM: relative to retigabine = 100%; for Emax at 1 µM: read-out: Fluorimetry % Efficacy @ 1 μM (Retigabine = 100%); for Emax at 10 µM: read-out: Fluorimetry % Efficacy @ 10 μM (Retigabine = 100%)
Method: Pharmacological Experiments Fluorescence Assay Using a Voltage-Sensitive Dye
Human CHO-K1 cells expressing KCNQ2/3 channels are cultivated adherently at 37° C., 5% CO2 and 95% humidity in cell culture bottles (e.g. 80 cm^2 TC flasks, Nunc) with DMEM-high glucose (Sigma Aldrich, D7777) including 10% FCS (PAN Biotech, e.g. 3302-P270521) or alternatively MEM Alpha Medium (1×, liquid, Invitrogen, #22571), 10% foetal calf serum (FCS) (Invitrogen, #10270-106, heat-inactivated) and the necessary selection antibiotics.
Before being sown out for the measurements, the cells are washed with a 1×DPBS buffer without Ca^2+/Mg^2+ (e.g. Invitrogen, #14190-094) and detached from the bottom of the culture vessel by means of Accutase (PAA Laboratories, #L11-007) (incubation with Accutase for 15 min at 37° C.). The cell count then present is determined using a CASY™ cell counter (TCC model, Scharfe System) in order subsequently to apply 20,000 to 30,000 cells/well/100 μl of the described nutrient medium, depending on density optimisation for the individual cell line, to 96-well measuring plates of the Corning™ CeIIBIND™ type (flat clear-bottom black polystyrene microplates, #3340).
Incubation is then carried out for one hour at room temperature, without gassing or adjusting the humidity, followed by incubation for 24 hours at 37° C., 5% CO2 and 95% humidity.
The voltage-sensitive fluorescent dye from the Membrane Potential Assay Kit (Red™ bulk format part R8123 for FLIPR, MDS Analytical Technologies™) is prepared by dissolving the contents of a vessel of Membrane Potential Assay Kit Red Component A in 200 ml of extracellular buffer (ES buffer, 120 mM NaCl, 1 mM KCl, 10 mM HEPES, 2 mM CaCl2, 2 mM MgCl2, 10 mM glucose; pH 7.4). After removal of the nutrient medium, the cells are washed with 200 μl of ES buffer, then covered with a layer of 100 μl of the dye solution prepared above and incubated for 45 min at room temperature with exclusion of light.
The fluorescence measurements are carried out with a BMG Labtech FLUOstar™ BMG Labtech NOVOstar™ or BMG Labtech POLARstar™ instrument (525 nm excitation, 560 nm emission, bottom-read mode). After incubation of the dye, 50 μl of the substances to be tested in the desired concentrations, or 50 μl of ES buffer for control purposes, are introduced into separate cavities of the measuring plate and incubated for 30 min at room temperature whilst being shielded from light. The fluorescence intensity of the dye is then measured for 5 min and the fluorescence value F1 of each well is thus determined at a given, constant time. 15 μl of a […] KCl solution ([…]) are then added to each well. The change in fluorescence is subsequently measured until all relevant measured values have been obtained (mainly 5-30 min). At a given time after KCl application, a fluorescence value F2 is determined, in this case at the time of the fluorescence peak.
For calculation, the fluorescence intensity F2 is compared with the fluorescence intensity F1, and the agonistic activity of the target compound on the potassium channel is determined therefrom. F2 and F1 are calculated as follows: […]
In order to determine whether a substance has an agonistic activity,
[formula] for example, can be compared with
[formula] of control cells.
[formula] is determined by adding to the reaction batch only the buffer solution instead of the substance to be tested, determining the value F1K of the fluorescence intensity, adding the potassium ions as described above and measuring a value F2K of the fluorescence intensity. Then F2K and F1K are calculated as follows: […]
A substance has an agonistic activity on the potassium channel if
[formula] is greater than
Independently of the comparison of
[formula] it is also possible to conclude that a target compound has an agonistic activity if an increase in
[formula] is to be observed as the dosage of the target compound increases. […]

hKCNQ2/3 [2] = target: T1, hKCNQ2/3; test: Voltage-clamp (patch-clamp) measurements on stably transfected hKCNQ2/3 CHO-K1 cell line; assay type: cell-based; design: expressed in transfected cells; host or cells: CHO-K1 (stably transfected); conditions: 10 μM test substance at −40 mV, current increase normalised against retigabine (10 μM), read-out: Patch-clamp % Efficacy @ 10 μM (Retigabine = 100%)
Method: Voltage-Clamp Measurements
In order to confirm a KCNQ2/3 agonistic action of the substances electrophysiologically, patch-clamp measurements (Hamill O P, Marty A, Neher E, Sakmann B, Sigworth F J: Improved patch-clamp techniques for high-resolution current recording from cells and cell-free membrane patches, Pfluger's Arch. 1981 August; 391(2):85-100) were performed in voltage-clamp mode on a stably transfected hKCNQ2/3 CHO-K1 cell line. After formation of the gigaseal the cells were first clamped at a holding potential of −60 mV. Depolarising voltage jumps up to a potential of +20 mV were then applied (increment: 20 mV, duration: 1 second) in order to confirm the functional expression of KCNQ2/3-typical currents. The substances were tested at a potential of −40 mV. First of all the current increase induced by retigabine (10 μM) at −40 mV was recorded on each cell as a positive control. After completely washing out the retigabine effect (duration: 80 s) the test substance (10 μM) was applied. The current increase induced by the test substance was normalised against the retigabine effect and stated as the relative efficacy (see below).

rat = test: Formalin test in the rat; assay type: in vivo, Sprague Dawley rats; conditions: phase II (21-27 min after formalin administration)
Method: The formalin test (Dubuisson, D. and Dennis, S. G., 1977, Pain, 4, 161-174) is a model for acute and chronic pain. In the tests described here, the chronic pain component (phase II of the formalin test; time interval 21-27 min after formalin administration) was analysed.
A single formalin injection into the dorsal side of one rear paw was used to induce a biphase nociceptive response in experimental animals allowed to move freely, and the response was recorded by observation of three clearly distinguishable behaviour patterns.
Formalin is administered subcutaneously in a volume of 50 μl and a concentration of 5% into the dorsal side of the right rear paw of each animal. The vehicle and the substances to be tested are administered intravenously 5 minutes before or orally 30 minutes before the formalin injection.
The specific behavioural changes, such as lifting and shaking the paw, shifting of weight by the animal and biting and licking responses, are observed and recorded continuously for 60 minutes after formalin administration. The behavioural changes are weighted differently (score 0-3) and a pain rate (PR) calculated using the formula below: PR=[(T0×0)+(T1×1)+(T2×2)+(T3×3)/180.
Sprague Dawley rats (Janvier, Belgium) are used as the phylum. The weight of the animals is between 180 and 200 g. The group size was n=10.

T1 sequence (O43526 whole entry): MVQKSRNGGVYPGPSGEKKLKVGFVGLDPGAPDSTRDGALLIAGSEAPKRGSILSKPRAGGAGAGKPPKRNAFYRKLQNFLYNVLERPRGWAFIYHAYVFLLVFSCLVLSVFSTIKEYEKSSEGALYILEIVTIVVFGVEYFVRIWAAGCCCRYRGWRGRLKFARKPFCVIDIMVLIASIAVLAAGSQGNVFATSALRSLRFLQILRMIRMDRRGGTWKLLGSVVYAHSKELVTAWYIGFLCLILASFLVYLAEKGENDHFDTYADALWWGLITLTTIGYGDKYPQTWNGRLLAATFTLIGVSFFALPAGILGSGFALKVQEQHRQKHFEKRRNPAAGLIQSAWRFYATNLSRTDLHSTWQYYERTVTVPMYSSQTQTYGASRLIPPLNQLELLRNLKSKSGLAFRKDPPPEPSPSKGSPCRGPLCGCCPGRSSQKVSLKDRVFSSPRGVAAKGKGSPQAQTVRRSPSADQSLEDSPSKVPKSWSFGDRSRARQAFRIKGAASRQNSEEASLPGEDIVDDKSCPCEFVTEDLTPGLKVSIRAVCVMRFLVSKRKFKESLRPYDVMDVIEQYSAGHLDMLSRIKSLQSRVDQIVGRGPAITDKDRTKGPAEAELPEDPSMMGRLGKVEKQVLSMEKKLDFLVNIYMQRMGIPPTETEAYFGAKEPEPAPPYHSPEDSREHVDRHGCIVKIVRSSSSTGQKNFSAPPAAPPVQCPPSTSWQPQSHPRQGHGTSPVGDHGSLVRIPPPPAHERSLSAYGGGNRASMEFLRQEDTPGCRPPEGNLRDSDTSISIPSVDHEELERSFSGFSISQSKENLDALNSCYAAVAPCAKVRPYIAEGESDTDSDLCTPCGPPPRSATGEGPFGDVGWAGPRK
T1 sequence (O43525 whole entry): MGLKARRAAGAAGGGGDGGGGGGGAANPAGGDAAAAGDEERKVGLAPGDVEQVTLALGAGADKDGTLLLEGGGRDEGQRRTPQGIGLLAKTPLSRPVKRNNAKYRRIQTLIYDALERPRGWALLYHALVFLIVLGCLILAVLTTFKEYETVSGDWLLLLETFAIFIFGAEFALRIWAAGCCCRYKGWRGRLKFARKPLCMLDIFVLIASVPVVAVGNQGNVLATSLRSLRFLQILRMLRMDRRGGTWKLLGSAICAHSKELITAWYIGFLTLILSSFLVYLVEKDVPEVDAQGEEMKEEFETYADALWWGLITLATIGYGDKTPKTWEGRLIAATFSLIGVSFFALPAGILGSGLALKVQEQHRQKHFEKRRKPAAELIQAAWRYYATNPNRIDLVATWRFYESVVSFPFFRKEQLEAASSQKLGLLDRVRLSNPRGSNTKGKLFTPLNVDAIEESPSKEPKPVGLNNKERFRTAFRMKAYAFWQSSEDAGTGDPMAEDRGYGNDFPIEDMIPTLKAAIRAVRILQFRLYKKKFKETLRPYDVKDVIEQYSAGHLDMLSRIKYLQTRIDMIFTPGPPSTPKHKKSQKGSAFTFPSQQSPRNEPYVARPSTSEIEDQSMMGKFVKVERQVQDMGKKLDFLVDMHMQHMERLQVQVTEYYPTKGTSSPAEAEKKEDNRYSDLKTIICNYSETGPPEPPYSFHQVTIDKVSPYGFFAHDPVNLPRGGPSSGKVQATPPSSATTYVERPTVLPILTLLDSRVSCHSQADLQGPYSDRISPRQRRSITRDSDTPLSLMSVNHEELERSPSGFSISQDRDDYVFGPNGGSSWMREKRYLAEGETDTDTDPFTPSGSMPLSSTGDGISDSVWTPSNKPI

| SMILES | EC50 (hKCNQ2/3 [1]) [nM] | Emax at 1 µM (hKCNQ2/3 [1]) [%] | other results |
| --- | --- | --- | --- |
| CC1c2ccccc2CCN1C(=O)CCC(=O)NCc1cccc(C(F)(F)F)c1 (stereo not drawn) [Example compound 2, 4-(1-Methyl-3,4-dihydro-1H-isoquinolin-2-yl)-4-oxo-N-[[3-(trifluoromethyl)phenyl]methyl]butyric acid amide] | 10400 | – | Emax at 10 µM (hKCNQ2/3 [2]): 17% |
| O=C(CCC(=O)N1CCc2ccccc2C1c1cccs1)NCc1cccc(C(F)(F)F)c1 (stereo not drawn) [Example compound 3, 4-Oxo-4-(1-thien-2-yl-3,4-dihydroisoquinolin-2(1H)-yl)-N-(3-(trifluoromethyl)benzyl)butyric acid amide] | 1050 | 76 | Emax at 10 µM (hKCNQ2/3 [1]): 134% |
| O=C(CCC(=O)N1CCc2ccccc2C1c1ccncc1)NCc1cccc(C(F)(F)F)c1 (stereo not drawn) [Example compound 4, 4-Oxo-4-[1-(4-pyridyl)-3,4-dihydro-1H-isoquinolin-2-yl]-N-[[3-(trifluoromethyl)phenyl]methyl]butyric acid amide] | – | 11 | Emax at 10 µM (hKCNQ2/3 [1]): 35% |
| O=C(CCC(=O)N1CCc2ccc(F)cc2C1c1ccccc1)NCc1cccc(C(F)(F)F)c1 (stereo not drawn) [Example compound 5, 4-(7-Fluoro-1-phenyl-3,4-dihydroisoquinolin-2(1H)-yl)-4-oxo-N-(3-(trifluoromethyl)benzyl)butyric acid amide] | 83 | 69 | – |
| O=C(CCC(=O)N1CCc2c(F)cccc2C1c1ccccc1)NCc1cccc(C(F)(F)F)c1 (stereo not drawn) [Example compound 6, 4-(5-Fluoro-1-phenyl-3,4-dihydro-1H-isoquinolin-2-yl)-4-oxo-N-[[3-(trifluoromethyl)phenyl]methyl]butyric acid amide] | 75 | 73 | – |
| O=C(CCC(=O)N1CCc2ccccc2C1c1ccccc1)NCc1ccccc1C(F)(F)F (stereo not drawn) [Example compound 7, 4-Oxo-4-(1-phenyl-3,4-dihydro-1H-isoquinolin-2-yl)-N-[[2-(trifluoromethyl)phenyl]methyl]butyric acid amide] | – | 12 | – |
| O=C(CCC(=O)N1CCc2ccccc2C1c1ccccc1)NCc1ccc(C(F)(F)F)cc1 (stereo not drawn) [Example compound 8, 4-Oxo-4-(1-phenyl-3,4-dihydro-1H-isoquinolin-2-yl)-N-[[4-(trifluoromethyl)phenyl]methyl]butyric acid amide] | – | 63 | – |
| CC1CN(C(=O)CCC(=O)NCc2cccc(C(F)(F)F)c2)C(c2ccccc2)c2ccccc21 (stereo not drawn) [Example compound 9, 4-(4-Methyl-1-phenyl-3,4-dihydro-1H-isoquinolin-2-yl)-4-oxo-N-[[3-(trifluoromethyl)phenyl]methyl]butyric acid amide] | 116 | 51 | – |
| CC1(C)CN(C(=O)CCC(=O)NCc2cccc(C(F)(F)F)c2)C(c2ccccc2)c2ccccc21 (stereo not drawn) [Example compound 10, 4-(4,4-Dimethyl-1-phenyl-1,3-dihydroisoquinolin-2-yl)-4-oxo-N-[[3-(trifluoromethyl)phenyl]methyl]butyric acid amide] | 135 | 45 | – |
| COc1ccc2c(c1)C(c1ccccc1)N(C(=O)CCC(=O)NCc1cccc(C(F)(F)F)c1)CC2 (stereo not drawn) [Example compound 11, 4-(7-Methoxy-1-phenyl-3,4-dihydro-1H-isoquinolin-2-yl)-4-oxo-N-[[3-(trifluoromethyl)phenyl]methyl]butyric acid amide] | – | 30 | – |
| COc1cccc2c1CCN(C(=O)CCC(=O)NCc1cccc(C(F)(F)F)c1)C2c1ccccc1 (stereo not drawn) [Example compound 12, 4-(5-Methoxy-1-phenyl-3,4-dihydro-1H-isoquinolin-2-yl)-4-oxo-N-[[3-(trifluoromethyl)phenyl]methyl]butyric acid amide] | – | -7 | – |
| CC1Cc2ccccc2C(c2ccccc2)N1C(=O)CCC(=O)NCc1cccc(C(F)(F)F)c1 (stereo not drawn) [Example compound 13, 4-(3-Methyl-1-phenyl-3,4-dihydro-1H-isoquinolin-2-yl)-4-oxo-N-[[3-(trifluoromethyl)phenyl]methyl]butyric acid amide] | – | 29 | – |
| Cc1ccccc1C1c2ccccc2CCN1C(=O)CCC(=O)NCc1cccc(C(F)(F)F)c1 (stereo not drawn) [Example compound 67, 4-Oxo-4-(1-(2-tolyl)-3,4-dihydro-1H-isoquinolin-2-yl)-N-[[3-(trifluoromethyl)-phenyl]methyl]butyric acid amide] | 215 | 112 | – |
| Cc1ccccc1C1c2ccccc2CCN1C(=O)CCC(=O)NCc1ccc(C(F)(F)F)cc1 (stereo not drawn) [Example compound 68, 4-Oxo-4-(1-(2-tolyl)-3,4-dihydro-1H-isoquinolin-2-yl)-N-[[4-(trifluoromethyl)-phenyl]methyl]butyric acid amide] | 149 | 56 | – |
| Cc1ccccc1C1c2ccccc2CCN1C(=O)CCC(=O)NCc1ccccc1C(F)(F)F (stereo not drawn) [Example compound 69, 4-Oxo-4-(1-(2-tolyl)-3,4-dihydro-1H-isoquinolin-2-yl)-N-[[2-(trifluoromethyl)-phenyl]methyl]butyric acid amide] | 158 | 67 | – |
| O=C(CCC(=O)N1CCn2cccc2C1c1ccccc1)NCc1cccc(C(F)(F)F)c1 (stereo not drawn) [Example no. 2 in WO2008/046582, reference compound] | – | – | Formalin test rat i.v. @ 4.64 mg/kg % Reduction of nociceptive behaviour (rat): No effect |
